Columns and labels:
Experiment in all cases: Reduction of azo substrates over 24 hours at 35° C., microtitration plate (Example 1)
Assay type in all cases: cell-based
Candida albicans = system: Candida albicans; set-up: key to RED (substrate reduced or not): RED indicates whether the substrate is reduced (Y) or not (N); RED indicates whether the substrate is reduced (Y) or not (N); key to Co (growth, absorbance at 660 nm) / Decol (substrate decolourized, decrease in absorbance) / Fluo (fluorescence multiplied by 2 relative to substrate-free control): The symbol “+” means good growth/decolourization/significant increase in fluorescence; The symbol “+/−” means difficult growth; The symbol “−” means that there is no growth/decolourization/significant increase in fluorescence; conditions: substrate 35 mg/l
How it was run: (§1)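 Strains were incubated 24 h at 35° C. in Trypcase soya broth with azo substrate (35 mg/l), starting from a 0.5 McFarland inoculum. Growth was monitored at 660 nm, while decolourization and fluorescence increase were scored at wavelengths specific to each substrate.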

Cronobacter muytjensii = system: Cronobacter muytjensii; set-up: key to RED (substrate reduced or not): RED indicates whether the substrate is reduced (Y) or not (N); RED indicates whether the substrate is reduced (Y) or not (N); key to Co (growth, absorbance at 660 nm) / Decol (substrate decolourized, decrease in absorbance) / Fluo (fluorescence multiplied by 2 relative to substrate-free control): The symbol “+” means good growth/decolourization/significant increase in fluorescence; The symbol “+/−” means difficult growth; The symbol “−” means that there is no growth/decolourization/significant increase in fluorescence; conditions: E. muytjensii, substrate 35 mg/l
How it was run: as §1

Escherichia coli = system: Escherichia coli; set-up: key to RED (substrate reduced or not): RED indicates whether the substrate is reduced (Y) or not (N); RED indicates whether the substrate is reduced (Y) or not (N); key to Co (growth, absorbance at 660 nm) / Decol (substrate decolourized, decrease in absorbance) / Fluo (fluorescence multiplied by 2 relative to substrate-free control): The symbol “+” means good growth/decolourization/significant increase in fluorescence; The symbol “+/−” means difficult growth; The symbol “−” means that there is no growth/decolourization/significant increase in fluorescence; conditions: E. coli, substrate 35 mg/l
How it was run: as §1

Geotrichum candidum = system: Geotrichum candidum; set-up: key to RED (substrate reduced or not): RED indicates whether the substrate is reduced (Y) or not (N); RED indicates whether the substrate is reduced (Y) or not (N); key to Co (growth, absorbance at 660 nm) / Decol (substrate decolourized, decrease in absorbance) / Fluo (fluorescence multiplied by 2 relative to substrate-free control): The symbol “+” means good growth/decolourization/significant increase in fluorescence; The symbol “+/−” means difficult growth; The symbol “−” means that there is no growth/decolourization/significant increase in fluorescence; conditions: G. candidum, substrate 35 mg/l
How it was run: as §1

Kocuria rosea = system: Kocuria rosea; set-up: key to RED (substrate reduced or not): RED indicates whether the substrate is reduced (Y) or not (N); RED indicates whether the substrate is reduced (Y) or not (N); key to Co (growth, absorbance at 660 nm) / Decol (substrate decolourized, decrease in absorbance) / Fluo (fluorescence multiplied by 2 relative to substrate-free control): The symbol “+” means good growth/decolourization/significant increase in fluorescence; The symbol “+/−” means difficult growth; The symbol “−” means that there is no growth/decolourization/significant increase in fluorescence; conditions: K. rosea, substrate 35 mg/l
How it was run: as §1

Pseudomonas aeruginosa = system: Pseudomonas aeruginosa; set-up: key to RED (substrate reduced or not): RED indicates whether the substrate is reduced (Y) or not (N); RED indicates whether the substrate is reduced (Y) or not (N); key to Co (growth, absorbance at 660 nm) / Decol (substrate decolourized, decrease in absorbance) / Fluo (fluorescence multiplied by 2 relative to substrate-free control): The symbol “+” means good growth/decolourization/significant increase in fluorescence; The symbol “+/−” means difficult growth; The symbol “−” means that there is no growth/decolourization/significant increase in fluorescence; conditions: P. aeruginosa, substrate 35 mg/l
How it was run: as §1

Staphylococcus aureus = system: Staphylococcus aureus; set-up: key to RED (substrate reduced or not): RED indicates whether the substrate is reduced (Y) or not (N); RED indicates whether the substrate is reduced (Y) or not (N); key to Co (growth, absorbance at 660 nm) / Decol (substrate decolourized, decrease in absorbance) / Fluo (fluorescence multiplied by 2 relative to substrate-free control): The symbol “+” means good growth/decolourization/significant increase in fluorescence; The symbol “+/−” means difficult growth; The symbol “−” means that there is no growth/decolourization/significant increase in fluorescence; conditions: S. aureus, substrate 35 mg/l
How it was run: as §1

[1] = system: Staphylococcus epidermidis; set-up: key to RED (substrate reduced or not): RED indicates whether the substrate is reduced (Y) or not (N); RED indicates whether the substrate is reduced (Y) or not (N); key to Co (growth, absorbance at 660 nm) / Decol (substrate decolourized, decrease in absorbance) / Fluo (fluorescence multiplied by 2 relative to substrate-free control): The symbol “+” means good growth/decolourization/significant increase in fluorescence; The symbol “+/−” means difficult growth; The symbol “−” means that there is no growth/decolourization/significant increase in fluorescence; conditions: S. epidermidis, substrate 35 mg/l
How it was run: as §1

Acinetobacter baumanii = system: Acinetobacter baumanii; set-up: key to RED (substrate reduced or not): RED indicates whether the substrate is reduced (Y) or not (N); RED indicates whether the substrate is reduced (Y) or not (N); key to Decol (substrate decolourized, decrease in absorbance) / Fluo (fluorescence multiplied by 2 relative to substrate-free control) / Co (growth, absorbance at 660 nm): The symbol “+” means good growth/decolourization/significant increase in fluorescence; The symbol “+/−” means difficult growth; The symbol “−” means that there is no growth/decolourization/significant increase in fluorescence; conditions: A. baumannii, substrate 35 mg/l
How it was run: as §1

Enterococcus faecalis = system: Enterococcus faecalis; set-up: key to RED (substrate reduced or not): RED indicates whether the substrate is reduced (Y) or not (N); RED indicates whether the substrate is reduced (Y) or not (N); key to Decol (substrate decolourized, decrease in absorbance) / Fluo (fluorescence multiplied by 2 relative to substrate-free control) / Co (growth, absorbance at 660 nm): The symbol “+” means good growth/decolourization/significant increase in fluorescence; The symbol “+/−” means difficult growth; The symbol “−” means that there is no growth/decolourization/significant increase in fluorescence; conditions: E. faecalis, substrate 35 mg/l
How it was run: as §1

| SMILES | Co (growth, absorbance at 660 nm) (Candida albicans) | Decol (substrate decolourized, decrease in absorbance) (Candida albicans) | Fluo (fluorescence multiplied by 2 relative to substrate-free control) (Candida albicans) | RED (substrate reduced or not) (Candida albicans) | Co (growth, absorbance at 660 nm) (Cronobacter muytjensii) | Decol (substrate decolourized, decrease in absorbance) (Cronobacter muytjensii) | Fluo (fluorescence multiplied by 2 relative to substrate-free control) (Cronobacter muytjensii) | RED (substrate reduced or not) (Cronobacter muytjensii) | Co (growth, absorbance at 660 nm) (Escherichia coli) | Decol (substrate decolourized, decrease in absorbance) (Escherichia coli) | Fluo (fluorescence multiplied by 2 relative to substrate-free control) (Escherichia coli) | RED (substrate reduced or not) (Escherichia coli) | Co (growth, absorbance at 660 nm) (Geotrichum candidum) | Decol (substrate decolourized, decrease in absorbance) (Geotrichum candidum) | Fluo (fluorescence multiplied by 2 relative to substrate-free control) (Geotrichum candidum) | RED (substrate reduced or not) (Geotrichum candidum) | Co (growth, absorbance at 660 nm) (Kocuria rosea) | Decol (substrate decolourized, decrease in absorbance) (Kocuria rosea) | Fluo (fluorescence multiplied by 2 relative to substrate-free control) (Kocuria rosea) | Co (growth, absorbance at 660 nm) (Pseudomonas aeruginosa) | further results |
| --- | --- | --- | --- | --- | --- | --- | --- | --- | --- | --- | --- | --- | --- | --- | --- | --- | --- | --- | --- | --- | --- |
| O=S(=O)([O-])c1ccc(/N=N/c2ccc(O)c3ccccc23)cc1.[Na+] [Orange I] | + | − | − | N | + | + | − | Y | + | + | − | Y | +/− | − | − | N | − | − | − | + | Decol (substrate decolourized, decrease in absorbance) (Pseudomonas aeruginosa): −; Fluo (fluorescence multiplied by 2 relative to substrate-free control) (Pseudomonas aeruginosa): −; RED (substrate reduced or not) (Pseudomonas aeruginosa): N; Co (growth, absorbance at 660 nm) (Staphylococcus aureus): +; Decol (substrate decolourized, decrease in absorbance) (Staphylococcus aureus): +; Fluo (fluorescence multiplied by 2 relative to substrate-free control) (Staphylococcus aureus): −; RED (substrate reduced or not) (Staphylococcus aureus): Y; Co (growth, absorbance at 660 nm) [1]: +; Decol (substrate decolourized, decrease in absorbance) [1]: +; Fluo (fluorescence multiplied by 2 relative to substrate-free control) [1]: −; RED (substrate reduced or not) [1]: Y; Co (growth, absorbance at 660 nm) (Acinetobacter baumanii): +; Decol (substrate decolourized, decrease in absorbance) (Acinetobacter baumanii): +/−; Fluo (fluorescence multiplied by 2 relative to substrate-free control) (Acinetobacter baumanii): −; RED (substrate reduced or not) (Acinetobacter baumanii): Y; Co (growth, absorbance at 660 nm) (Enterococcus faecalis): +; Decol (substrate decolourized, decrease in absorbance) (Enterococcus faecalis): +; Fluo (fluorescence multiplied by 2 relative to substrate-free control) (Enterococcus faecalis): −; RED (substrate reduced or not) (Enterococcus faecalis): Y |
| O=S(=O)([O-])c1ccc2c(N=Nc3ccccc3)c(O)c(S(=O)(=O)[O-])cc2c1.[Na+].[Na+] [Ponceau 2G] | + | − | − | N | + | − | − | N | + | − | − | N | +/− | − | − | N | − | − | − | + | Decol (substrate decolourized, decrease in absorbance) (Pseudomonas aeruginosa): −; Fluo (fluorescence multiplied by 2 relative to substrate-free control) (Pseudomonas aeruginosa): −; RED (substrate reduced or not) (Pseudomonas aeruginosa): N; Co (growth, absorbance at 660 nm) (Staphylococcus aureus): +; Decol (substrate decolourized, decrease in absorbance) (Staphylococcus aureus): −; Fluo (fluorescence multiplied by 2 relative to substrate-free control) (Staphylococcus aureus): −; RED (substrate reduced or not) (Staphylococcus aureus): N; Co (growth, absorbance at 660 nm) [1]: +; Decol (substrate decolourized, decrease in absorbance) [1]: −; Fluo (fluorescence multiplied by 2 relative to substrate-free control) [1]: −; RED (substrate reduced or not) [1]: N; Co (growth, absorbance at 660 nm) (Acinetobacter baumanii): +; Decol (substrate decolourized, decrease in absorbance) (Acinetobacter baumanii): −; Fluo (fluorescence multiplied by 2 relative to substrate-free control) (Acinetobacter baumanii): −; RED (substrate reduced or not) (Acinetobacter baumanii): N; Co (growth, absorbance at 660 nm) (Enterococcus faecalis): +; Decol (substrate decolourized, decrease in absorbance) (Enterococcus faecalis): +; Fluo (fluorescence multiplied by 2 relative to substrate-free control) (Enterococcus faecalis): −; RED (substrate reduced or not) (Enterococcus faecalis): Y |
| O=S(=O)([O-])c1ccc(N=Nc2c(O)ccc3cc(S(=O)(=O)[O-])ccc23)cc1.[Na+].[Na+] [Sunset Yellow] | + | + | + | Y | + | − | − | N | + | − | − | N | + | − | − | N | − | − | − | + | Decol (substrate decolourized, decrease in absorbance) (Pseudomonas aeruginosa): −; Fluo (fluorescence multiplied by 2 relative to substrate-free control) (Pseudomonas aeruginosa): −; RED (substrate reduced or not) (Pseudomonas aeruginosa): N; Co (growth, absorbance at 660 nm) (Staphylococcus aureus): +; Decol (substrate decolourized, decrease in absorbance) (Staphylococcus aureus): −; Fluo (fluorescence multiplied by 2 relative to substrate-free control) (Staphylococcus aureus): −; RED (substrate reduced or not) (Staphylococcus aureus): N; Co (growth, absorbance at 660 nm) [1]: +; Decol (substrate decolourized, decrease in absorbance) [1]: −; Fluo (fluorescence multiplied by 2 relative to substrate-free control) [1]: −; RED (substrate reduced or not) [1]: N; Co (growth, absorbance at 660 nm) (Acinetobacter baumanii): +; Decol (substrate decolourized, decrease in absorbance) (Acinetobacter baumanii): −; Fluo (fluorescence multiplied by 2 relative to substrate-free control) (Acinetobacter baumanii): −; RED (substrate reduced or not) (Acinetobacter baumanii): N; Co (growth, absorbance at 660 nm) (Enterococcus faecalis): +; Decol (substrate decolourized, decrease in absorbance) (Enterococcus faecalis): +; Fluo (fluorescence multiplied by 2 relative to substrate-free control) (Enterococcus faecalis): +; RED (substrate reduced or not) (Enterococcus faecalis): Y |

— patent US20150125889A1, “IN VITRO DETECTION OF MICROORGANISMS WITH AZOREDUCTASE ACTIVITY” (BIOMÉRIEUX, priority 2012, published 2015)
